Patent publication US20080182751A1, “Brassicaceae Plant Materials and Method for Their Use as Biopesticides” (Idaho Research Foundation, Inc., priority 2006, published 2008)

What was measured:
[1] = pH stability of 4-OH benzyl ITC in 5 buffer solutions; type: physicochemical
Description: The pH stability of 4-OH benzyl ITC was assayed by incubating it in 5 buffer solutions (sodium acetate/acetic acid from pH range 3 to 5 and monosodium phosphate/phosphatic acid for pH above 5) with pHs ranging from 3.0 to 7.0. At specific times during the incubation a sample from the incubated solution was withdrawn with a syringe and injected into an HPLC-PDA (Waters Integrity system, separation module 2695, photodiode array detector 996, column Phenomenex Aqua C-18, 5 μm, 150×2 mm, with a constant flow rate of 200 μl/minute gradient from 5 to 35% of methanol in 30 minutes). The amount of 4-OH benzyl ITC was determined using calibration with benzyl ITC.

[2] = Stability of 4-hydroxybenzyl isothiocyanate in buffered aqueous solutions (citrate buffers); type: physicochemical; details: citrate buffer
Description: Stability of 4-Hydroxybenzyl Isothiocyanate in Buffered Media. Partially purified 4-hydroxybenzyl isothiocyanate was prepared by suspending 500 grams of S. alba seed meal in 2 liters of deionized water and extracting the mixture with 500 milliliters of ethyl acetate for 24 hours. The ethyl acetate extract was separated by decanting the top organic layer after centrifugation, dried with 100 g of anhydrous sodium sulfate over night, and concentrated under vacuum at laboratory temperature. The crude 4-hydroxybenzyl isothiocyanate extract was further purified by preparative column chromatography on silica gel (500 grams). […] Content of 4-hydroxybenzyl isothiocyanate within the fractions was verified by GC-MS using instrumentation and conditions as described previously. Fractions containing 4-hydroxybenzyl isothiocyanate were combined and concentrated under vacuum at laboratory temperature producing a yellowish, viscous fluid displaying only 4-hydroxybenzyl isothiocyanate and pentane/methylene chloride solvent peaks in the GC chromatogram. No further concentration of 4-hydroxybenzyl isothiocyanate was achieved using vacuum distillation because of its instability.
The pH stability of 4-hydroxybenzyl isothiocyanate was analyzed by incubating 25 μL of partially purified extract dissolved in 25 milliliters of eight different buffers with pH values ranging from 3.0 to 6.5 (FIG. 7). 0.1 M buffers were used, and were prepared by mixing 0.2 M sodium citrate and citric acid solutions in pre-calculated ratios ranging from 4 milliliters sodium citrate and 46 milliliters citric acid to 41 milliliters sodium citrate and 9 milliliters citric acid in a total volume of […]. Actual pH values of the buffers of 3.03, 3.52, 4.02, 4.49, 5.00, 5.46, 5.91, and 6.52 were verified using an Orion model 420A pH meter (Orion Research, Boston). At specific times during the incubation a 1-milliliter sample was withdrawn from the buffered reaction solution with a syringe and injected into a Waters Integrity HPLC system (2695 separation module, 996 PDA, and TMD) equipped with a 150×2 mm i.d., 5 μm Aqua C-18 column (Phenomenex). The instrument was operated at a constant flow rate of 200 μL/min with a gradient from 5 to 35% of methanol during each 30-minute run. Half-lives for 4 hydroxybenzyl isothiocyanate were estimated from straight lines obtained by plotting the natural logarithm of the normalized concentration versus time (FIG. 7). This experiment was repeated twice with two different meal extracts acquired by the same procedures from the same seed material. Half-lives from only one of the experiments are reported since the results for both experiments were similar.

[3] = test system: weeds; details: Harvey 1931; cited from earlier work
[4] = test system: wheat; details: effect no longer observed at 69 days post application (Bissey and Butler 1934); cited from earlier work
[5] = test system: cotton; details: solutions sprayed directly on vegetative growth (Harvey 1931); cited from earlier work

| Compound | Half Life ([1]; pH 3) [h] | Half Life ([1]; pH 4) [h] | Half Life ([1]; pH 5) [h] | Half Life ([1]; pH 6) [h] | Half Life ([1]; pH 7, listed as isothiocyanate precursor) [h] | half-life ([1]; sodium acetate/acetic acid buffer, pH 3.0) [h] | half-life ([2]; pH 3.0 buffer) [h] | half-life ([2]; pH 3.5 buffer) [h] | half-life ([2]; pH 4.0 buffer) [h] | half-life ([2]; pH 4.5 buffer) [h] | half-life ([2]; pH 5.0 buffer) [h] | half-life ([2]; pH 5.5 buffer) [h] | half-life ([2]; pH 6.0 buffer) [h] | half-life ([2]; pH 6.5 buffer) [h] | rate necessary for complete plant kill for 4 months [3] | rate removing a large percentage of the weeds [3] [kilograms/SCN^− ha] | application rate causing inhibition of wheat germination [4] [kilograms SCN^−/ha] | rate at which cotton defoliation was possible [5] [kilograms SCN^−/ha] |
| --- | --- | --- | --- | --- | --- | --- | --- | --- | --- | --- | --- | --- | --- | --- | --- | --- | --- | --- |
| Oc1ccc(CN=C=S)cc1 [4-hydroxybenzyl isothiocyanate] | 3.6 | 2.1 | 1.5 | 0.1 | 0.08 | 3.6 | 5.35 | 5.2 | 4.5 | 3.25 | 1.67 | 0.817 | 0.267 | 0.1 |  |  |  |  |
| N#CS [SCN^−, ionic thiocyanate] |  |  |  |  |  |  |  |  |  |  |  |  |  |  | 1,366 kg SCN^−/ha | 137 | 342 | 8.6 |
